Molecules are shown by their SMILES.

Experiment [1] addresses T1, G12C K-Ras4B (1-169) (Homo sapiens, UniProt P01116, G12C).
T1 construct: G12C K-Ras4B (1-169) protein, which was a KRAS G12C mutant; His tag (N, cleaved yes); made in house; host or cells: E. coli BL21 (DE3)
In words: Binding to KRAS G12C mutant, compound binding rate by LC-MS. To be noted: final compound concentration 2 μM, 1 μM protein, 2 hours at 25° C. An outline of the steps: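 Covalent labelling at 2 μM final compound on a mix of 1 μM each wild-type and G12C K-Ras4B (1-169) (E. coli-expressed, tag removed) in 1×TBS, 0.1 mM TCEP, 2 h at 25° C., quenched with formic acid. Intact-protein ESI Q-TOF LC-MS; binding rate from adduct vs unbound protein signal, graded A–E in 20% bands.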

For experiment [2], the target named is T2, KRAS G12C mutant (Homo sapiens, UniProt P01116, G12C).
T2 construct: 50 μM G12C K-Ras4B (1-169) protein and 1 mM BODIPY® FL GDP; His tag (N, cleaved yes); made in house; host or cells: E. coli BL21 (DE3)
Kind of experiment: Inhibition of SOS1-mediated nucleotide (GDP-GTP) exchange reaction of KRAS G12C mutant, BODIPY FL GDP fluorescence. Format: biochemical. Conditions: preincubated 25° C. 4 hours with 25 nM KRAS G12C bound with BODIPY FL GDP; SOS1 100 nM, GppNHp 1 μM, 30 minutes. An outline of the steps:
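KRAS G12C (1-169) loaded with BODIPY FL GDP (25 nM) was preincubated with compound (5% DMSO) for 4 h at 25 °C. Exchange then ran 30 min with SOS1 (564-1049, 100 nM) and 1 µM GppNHp. IC50 came from the 485/520 nm fluorescence change, normalized to DMSO and no-GppNHp controls.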

For orientation: IC50 means the point on the concentration scale where inhibition reaches its midpoint. Low values mean inhibition by little substance, high ones a need for much substance. For the molecule `CN(C)C/C=C/C(=O)N1CC(NC(=O)c2cnc(CNc3cc(C(C)(C)C)c(Cl)cc3O)n2C)C1` [Example 89, (E)-2-(((5-(tert-Butyl)-4-chloro-2-hydroxyphenyl)amino)methyl)-N-(1-(4-(dimethylamino)but-2-enoyl)azetidin-3-yl)-1-methyl-1H-imidazole-5-carboxamide], in experiment [1], the “binding rate for G12C K-Ras4B (1-169)” value was “A (80% or more)”. The IC50 in experiment [2] was 61 nM.

As to `C=CC(=O)N1CC(NC(=O)c2cnc(CNc3cc(C(C)(C)C)c(Cl)cc3O)[nH]2)C1` [Example 26, N-(1-Acryloylazetidin-3-yl)-2-(((5-(tert-butyl)-4-chloro-2-hydroxyphenyl)amino)methyl)-1H-imidazole-5-carboxamide], the “binding rate for G12C K-Ras4B (1-169)” value in experiment [1] is reported as “A (80% or more)”. Moreover, it took 212 nM to reach half-maximal inhibition in experiment [2] (IC50).

For the molecule `C=CC(=O)N1CC(NC(=O)c2cn(C)c(CNc3cc(C(C)(C)C)c(Cl)cc3O)n2)C1` [Example 25, N-(1-Acryloylazetidin-3-yl)-2-(((5-(tert-butyl)-4-chloro-2-hydroxyphenyl)amino)methyl)-1-methyl-1H-imidazole-4-carboxamide], the “binding rate for G12C K-Ras4B (1-169)” value in experiment [1] was “E (less than 20%)”. This molecule also registered an IC50 in experiment [2] of 4680 nM.

For the molecule `C=CC(=O)N1CC(NC(=O)c2ccc(CNc3cc(C(C)(C)C)c(Cl)cc3O)s2)C1` [Example 7, N-(1-Acryloylazetidin-3-yl)-5-(((5-(tert-butyl)-4-chloro-2-hydroxyphenyl)amino)methyl)thiophene-2-carboxamide], the “binding rate for G12C K-Ras4B (1-169)” value in experiment [1] is reported as “A (80% or more)”. In experiment [2], the IC50 came to 1510 nM.

For the molecule `C=CC(=O)N1CC(NC(=O)c2cnc(CNc3cc(CC)c(Cl)cc3O)n2C)C1` [Example 61, N-(1-Acryloylazetidin-3-yl)-2-(((4-chloro-5-ethyl-2-hydroxyphenyl)amino)methyl)-1-methyl-1H-imidazole-5-carboxamide], the “binding rate for G12C K-Ras4B (1-169)” value in experiment [1] was “B (60% or more and less than 80%)”. Also, the IC50 in experiment [2] is 144 nM.

With `C=CC(=O)N1CC(NC(=O)c2ccc(CNc3cc(C(C)(C)C)c(Cl)cc3O)cc2)C1` [Example 3, N-(1-Acryloylazetidin-3-yl)-4-(((5-(tert-butyl)-4-chloro-2-hydroxyphenyl)amino)methyl)benzamide], the “binding rate for G12C K-Ras4B (1-169)” value in experiment [1] was “B (60% or more and less than 80%)”. Further, the IC50 in experiment [2] was 753 nM.

For the molecule `C=CC(=O)N1CC(NC(=O)c2cnc(CNc3cc(C(C)(C)C)c(CC)cc3O)n2C)C1` [Example 70, N-(1-Acryloylazetidin-3-yl)-2-(((5-(tert-butyl)-4-ethyl-2-hydroxyphenyl)amino)methyl)-1-methyl-1H-imidazole-5-carboxamide], the “binding rate for G12C K-Ras4B (1-169)” value in experiment [1] is “B (60% or more and less than 80%)”. The molecule also had an IC50 in experiment [2] of 84 nM.

As to `C=CC(=O)N1CC(NC(=O)c2c(C)nc(C(O)c3cc(C(C)(C)C)c(Cl)cc3O)n2C)C1` (stereo not drawn) [Example 91, N-(1-Acryloylazetidin-3-yl)-2-((5-(tert-butyl)-4-chloro-2-hydroxyphenyl) (hydroxy)methyl)-1,4-dimethyl-1H-imidazole-5-carboxamide], the “binding rate for G12C K-Ras4B (1-169)” value in experiment [1] was “D (20% or more and less than 40%)”. The IC50 in experiment [2] stood at 128 nM.

For `CN(C)C/C=C/C(=O)N1CC(NC(=O)c2cnc(CNc3cc(C(C)(C)C)c(Cl)cc3O)s2)C1` [Example 86, (E)-2-(((5-(tert-Butyl)-4-chloro-2-hydroxyphenyl)amino)methyl)-N-(1-(4-(dimethylamino)but-2-enoyl)azetidin-3-yl)thiazole-5-carboxamide], the “binding rate for G12C K-Ras4B (1-169)” value in experiment [1] was “B (60% or more and less than 80%)”. For the same molecule, in experiment [2], the IC50 was determined as 701 nM.

`C=CC(=O)N1CC(N(C)C(=O)c2ccc(CNc3cc(OC(F)(F)F)c(Cl)cc3O)o2)C1` [Example 49, N-(1-Acryloylazetidin-3-yl)-5-(((4-chloro-2-hydroxy-5-(trifluoromethoxy)phenyl)amino)methyl)-N-methylfuran-2-carboxamide]: the “binding rate for G12C K-Ras4B (1-169)” value in experiment [1] is “E (less than 20%)”. Half-maximal inhibition in experiment [2] (IC50) was put at 1140 nM.

As to `C=CC(=O)N1CC(NC(=O)c2cnc(CNc3cc(C(C)(C)C)c(C=C)cc3O)n2C)C1` [Example 69, N-(1-Acryloylazetidin-3-yl)-2-(((5-(tert-butyl)-2-hydroxy-4-vinylphenyl)amino)methyl)-1-methyl-1H-imidazole-5-carboxamide], the “binding rate for G12C K-Ras4B (1-169)” value in experiment [1] is “B (60% or more and less than 80%)”. In experiment [2], this molecule yielded an IC50 of 89 nM.

Turning to `C=CC(=O)N1CC(NC(=O)c2cccc(CNc3cc(C(C)(C)C)c(Cl)cc3O)c2)C1` [Example 2, N-(1-Acryloylazetidin-3-yl)-3-(((5-(tert-butyl)-4-chloro-2-hydroxyphenyl)amino)methyl)benzamide], the “binding rate for G12C K-Ras4B (1-169)” value in experiment [1] was “B (60% or more and less than 80%)”. In experiment [2], this molecule came in with an IC50 of 815 nM.

For `C=CC(=O)N1CC(NC(=O)c2cnc(CNc3cc(C(C)(C)C)c(Cl)cc3O)n2CC)C1` [Example 36, N-(1-Acryloylazetidin-3-yl)-2-(((5-(tert-butyl)-4-chloro-2-hydroxyphenyl)amino)methyl)-1-ethyl-1H-imidazole-5-carboxamide], the “binding rate for G12C K-Ras4B (1-169)” value in experiment [1] is recorded as “A (80% or more)”. This molecule had an IC50 in experiment [2] of 15 nM.

As for `C=CC(=O)N1CC(NC(=O)c2cnc(C(C)Nc3cc(C(C)(C)C)c(Cl)c(F)c3O)n2C)C1` (stereo not drawn) [Example 82, N-(1-Acryloylazetidin-3-yl)-2-(1-((5-(tert-butyl)-4-chloro-3-fluoro-2-hydroxyphenyl)amino)ethyl)-1-methyl-1H-imidazole-5-carboxamide], the “binding rate for G12C K-Ras4B (1-169)” value in experiment [1] is “B (60% or more and less than 80%)”. This molecule also gave an IC50 in experiment [2] of 1040 nM.

Take `C=CC(=O)N1CC(NC(=O)c2cnc(CNc3cc(S(F)(F)(F)(F)F)ccc3O)n2C)C1` [Example 75, N-(1-Acryloylazetidin-3-yl)-2-(((2-hydroxy-5-(pentafluoro-λ6-sulfaneyl)phenyl)amino)methyl)-1-methyl-1H-imidazole-5-carboxamide]: the “binding rate for G12C K-Ras4B (1-169)” value in experiment [1] is given as “E (less than 20%)”. For the same molecule, the IC50 in experiment [2] was 661 nM.

As to `C=CC(=O)N1CC(NC(=O)c2c(C)nc(CNc3nc([Si](C)(C)C)c(Cl)cc3O)n2C)C1` [Example 85, N-(1-Acryloylazetidin-3-yl)-2-(((5-chloro-3-hydroxy-6-(trimethylsilyl)pyridin-2-yl)amino)methyl)-1,4-dimethyl-1H-imidazole-5-carboxamide], the “binding rate for G12C K-Ras4B (1-169)” value in experiment [1] is “C (40% or more and less than 60%)”. In experiment [2], this molecule showed an IC50 of 39 nM.

Consider `C=CC(=O)N1CC(NC(=O)c2cnc(CNc3cc(C4(C)CC4(F)F)c(Cl)cc3O)n2C)C1` (stereo not drawn) [Example 63, N-(1-Acryloylazetidin-3-yl)-2-(((4-chloro-5-(2,2-difluoro-1-methylcyclopropyl)-2-hydroxyphenyl)amino)methyl)-1-methyl-1H-imidazole-5-carboxamide], for which, in experiment [1], the “binding rate for G12C K-Ras4B (1-169)” value is recorded as “A (80% or more)”. Further, the IC50 in experiment [2] was determined as 37 nM.

`C=CC(=O)N1CC(N(C)C(=O)c2cnc(CNc3cc(C(C)(C)C)c(Cl)cc3O)s2)C1` [Example 31, N-(1-Acryloylazetidin-3-yl)-2-(((5-(tert-butyl)-4-chloro-2-hydroxyphenyl)amino)methyl)-N-methylthiazole-5-carboxamide]: the “binding rate for G12C K-Ras4B (1-169)” value in experiment [1] was “C (40% or more and less than 60%)”. In addition, 247 nM corresponded to half-maximal inhibition in experiment [2] (IC50).

(Values after patent US12479834B2, “Phenol compound or salt thereof” (TAIHO PHARMACEUTICAL CO., LTD., priority 2019, dated 2025).)
